SMILES | melting point
CC(=O)NS(=O)(=O)c1cccc(-c2cccc(-c3cc(-c4ccc(C(F)(F)F)cc4)cc(C)n3)n2)c1 [Example 443, N-Acetyl-3-[6′-methyl-4′-(4-trifluoromethyl-phenyl)-[2,2′]bipyridinyl-6-yl]-benzenesulfonamide] | 244 °C
Cc1cc(-c2ccc(C(F)(F)F)cc2)cc(-c2nc(-c3ccc(N)nc3)no2)n1 [Example 236, 5-{5-[6-Methyl-4-(4-trifluoromethyl-phenyl)-pyridin-2-yl]-[1,2,4]oxadiazol-3-yl}-pyridin-2-ylamine] | 163 °C
Cc1cc(-c2cc(C(F)(F)F)nc(-c3nc(-c4cccc(S(N)(=O)=O)c4)no3)n2)ccc1Cl [Example 106, 3-{5-[4-(4-Chloro-3-methyl-phenyl)-6-trifluoromethyl-pyrimidin-2-yl]-[1,2,4]oxadiazol-3-yl}-benzenesulfonamide] | 246 °C
Cc1cc(-c2ccc(C(F)(F)F)c(C)c2)nc(-n2cnc(-c3cnc(N)nc3)c2)n1 [Example 123, 5-{1-[4-Methyl-6-(3-methyl-4-trifluoromethyl-phenyl)-pyrimidin-2-yl]-1H-imidazol-4-yl}-pyrimidin-2-ylamine] | 248 °C
Cc1cc(-c2ccc(C(F)(F)F)cc2)cc(-c2cncc(-c3cccc(S(N)(=O)=O)c3)c2)n1 [Example 295, 3-[6-Methyl-4-(4-trifluoromethyl-phenyl)-[2,3′]bipyridinyl-5′-yl]-benzenesulfonamide] | 235 °C (dec.)
NS(=O)(=O)c1ccc(-c2cc(-c3nc(-c4ccc(F)cc4)cc(C(F)(F)F)n3)ccn2)s1 [Example 397, 5-{4-[4-(4-Fluoro-phenyl)-6-trifluoromethyl-pyrimidin-2-yl]-pyridin-2-yl}-thiophene-2-sulfonic acid amide] | 282 °C
Cc1cc(-c2ccc(C(F)(F)F)cc2)nc(-c2cccc(-c3ccc(N)nc3)c2)n1 [Example 116, 5-{3-[4-Methyl-6-(4-trifluoromethyl-phenyl)-pyrimidin-2-yl]-phenyl}-pyridin-2-ylamine] | 224 °C
Nc1ccc(-c2cn(-c3nc(-c4ccc(F)cc4)cc(C(F)(F)F)n3)cn2)cn1 [Example 378, 5-{1-[4-(4-Fluoro-phenyl)-6-trifluoromethyl-pyrimidin-2-yl]-1H-imidazol-4-yl}-pyridin-2-ylamine] | 249.5 °C
NS(=O)(=O)c1ccc(-c2cn(-c3nc(-c4ccc(F)cc4)cc(C(F)(F)F)n3)cn2)s1 [Example 386, 5-{1-[4-(4-Fluoro-phenyl)-6-trifluoromethyl-pyrimidin-2-yl]-1H-imidazol-4-yl}-thiophene-2-sulfonic acid amide] | 244.5 °C
CNS(=O)(=O)c1cccc(-c2cc(-c3nc(-c4ccc(C(F)(F)F)cc4)cc(C(F)(F)F)n3)ccn2)c1 [Example 402, N-Methyl-3-{4-[4-trifluoromethyl-6-(4-trifluoromethyl-phenyl)-pyrimidin-2-yl]-pyridin-2-yl}-benzenesulfonamide] | 174 °C
NS(=O)(=O)c1ccc(-c2cn(-c3cc(-c4ccc(C(F)(F)F)cc4)cc(C(F)(F)F)n3)cn2)s1 [Example 314, 5-{1-[6-Trifluoromethyl-4-(4-trifluoromethyl-phenyl)-pyridin-2-yl]-1H-imidazol-4-yl}-thiophene-2-sulfonic acid amide] | 237 °C (dec.)
CC(C)(C)NS(=O)(=O)c1ccc(-c2cc(-c3nc(-c4ccc(C(F)(F)F)cc4)cc(C(F)(F)F)n3)ccn2)s1 [Example 162, 5-{4-[4-Trifluoromethyl-6-(4-trifluoromethyl-phenyl)-pyrimidin-2-yl]-pyridin-2-yl}-thiophene-2-sulfonic acid tert-butylamide] | 237 °C
Cc1cc(-c2ccc(C(F)(F)F)cc2)cc(-c2cccc(-c3cccc(S(=O)(=O)N4CCC(Oc5ncccn5)CC4)c3)n2)n1 [Example 435, 6-Methyl-6′-{3-[4-(pyrimidin-2-yloxy)-piperidine-1-sulfonyl]-phenyl}-4-(4-trifluoromethyl-phenyl)-[2,2′]bipyridinyl] | 134 °C (dec.)
NS(=O)(=O)c1cncc(-c2cn(-c3cc(C(F)(F)F)cc(-c4ccc(C(F)(F)F)cc4)n3)cn2)c1 [Example 290, 5-{1-[4-Trifluoromethyl-6-(4-trifluoromethyl-phenyl)-pyridin-2-yl]-1H-imidazol-4-yl}-pyridine-3-sulfonic acid amide] | > 250 °C
Cc1cc(-c2ccc(C(F)(F)F)cc2)cc(-c2ccnc(-c3ccc(S(=O)(=O)NC(C)(C)C)s3)n2)n1 [Example 303, 5-{4-[6-Methyl-4-(4-trifluoromethyl-phenyl)-pyridin-2-yl]-pyrimidin-2-yl}-thiophene-2-sulfonic acid tert-butylamide] | 242 °C (dec.)
Cc1cc(-c2ccc(C(F)(F)F)c(C)c2)cc(-c2cccc(-c3cccc(S(N)(=O)=O)c3)n2)n1 [Example 440, 3-[6′-Methyl-4′-(3-methyl-4-trifluoromethyl-phenyl)-[2,2′]bipyridinyl-6-yl]-benzenesulfonamide] | > 250 °C

SMILES | melting point
NS(=O)(=O)c1cccc(-c2cc(-c3nc(-c4ccc(C(F)(F)F)cc4)cc(C(F)F)n3)ccn2)c1 [Example 457, 3-{4-[4-Difluoromethyl-6-(4-trifluoromethyl-phenyl)-pyrimidin-2-yl]-pyridin-2-yl}-benzenesulfonamide] | 233.5 °C
Cc1cc(-c2cc(C(F)(F)F)nc(-c3cccc(-c4ccc(N)nc4)c3)n2)ccc1Cl [Example 105, 5-{3-[4-(4-Chloro-3-methyl-phenyl)-6-trifluoromethyl-pyrimidin-2-yl]-phenyl}-pyridin-2-ylamine] | 168.5 °C
NS(=O)(=O)c1ccc(-c2nc(-c3nc(-c4ccc(C(F)(F)F)cc4)cc(C(F)(F)F)n3)no2)s1 [Example 23, 5-{3-[4-Trifluoromethyl-6-(4-trifluoromethyl-phenyl)-pyrimidin-2-yl]-[1,2,4]oxadiazol-5-yl}-thiophene-2-sulfonic acid amide] | 258.5 °C
CC(C)(C)NS(=O)(=O)c1cnc(-c2cn(-c3cc(-c4ccc(C(F)(F)F)cc4)cc(C(F)(F)F)n3)cn2)s1 [Example 302, 2-{1-[6-Trifluoromethyl-4-(4-trifluoromethyl-phenyl)-pyridin-2-yl]-1H-imidazol-4-yl}-thiazole-5-sulfonic acid tert-butylamide] | 252 °C
Cc1cc(-c2ccc(C(F)(F)F)cc2)cc(-c2nc(-c3ccc(N)nc3)cs2)n1 [Example 230, 5-{2-[6-Methyl-4-(4-trifluoromethyl-phenyl)-pyridin-2-yl]-thiazol-4-yl}-pyridin-2-ylamine] | 191 °C
CC(C)c1cc(-c2ccc(C(F)(F)F)cc2)nc(-n2cnc(-c3ccc(N)nc3)c2)n1 [Example 152, 5-{1-[4-Isopropyl-6-(4-trifluoromethyl-phenyl)-pyrimidin-2-yl]-1H-imidazol-4-yl}-pyridin-2-ylamine] | 274.5 °C
Nc1ccc(-c2cc(-c3nc(-c4cccc(C(F)(F)F)c4)cc(C(F)(F)F)n3)ccn2)cn1 [Example 141, 4-[4-Trifluoromethyl-6-(3-trifluoromethyl-phenyl)-pyrimidin-2-yl]-[2,3′]bipyridinyl-6′-ylamine] | 196 °C
NS(=O)(=O)c1ccc(-c2cccc(-c3nc(-c4ccc(F)c(F)c4)cc(C(F)(F)F)n3)c2)s1 [Example 388, 5-{3-[4-(3,4-Difluoro-phenyl)-6-trifluoromethyl-pyrimidin-2-yl]-phenyl}-thiophene-2-sulfonic acid amide] | 238 °C
Cc1cc(-c2ccc(Cl)cc2)nc(-c2ccnc(-c3cccc(S(N)(=O)=O)c3)c2)n1 [Example 189, 3-{4-[4-(4-Chloro-phenyl)-6-methyl-pyrimidin-2-yl]-pyridin-2-yl}-benzenesulfonamide] | 224 °C
Cc1cc(-c2ccc(C(F)(F)F)cc2)cc(-c2ccnc(-c3cccc(S(=O)(=O)NC(C)(C)CO)c3)c2)n1 [Example 349, N-(2-Hydroxy-1,1-dimethyl-ethyl)-3-[6-methyl-4-(4-trifluoromethyl-phenyl)-[2,4′]bipyridinyl-2′-yl]-benzenesulfonamide] | 92 °C
NS(=O)(=O)c1ccc(-c2cc(-c3nc(-c4ccc(C(F)(F)F)cc4)cc(C(F)(F)F)n3)ccn2)s1 [Example 164, 5-{4-[4-Trifluoromethyl-6-(4-trifluoromethyl-phenyl)-pyrimidin-2-yl]-pyridin-2-yl}-thiophene-2-sulfonic acid amide] | 262 °C
NS(=O)(=O)c1ccc(-c2cc(-c3nc(-c4ccc(C(F)(F)F)cc4F)cc(C(F)(F)F)n3)ccn2)s1 [Example 451, 5-{4-[4-(2-Fluoro-4-trifluoromethyl-phenyl)-6-trifluoromethyl-pyrimidin-2-yl]-pyridin-2-yl}-thiophene-2-sulfonic acid amide] | 228 °C
CCOc1cc(-c2cc(C(F)(F)F)nc(-c3ccnc(-c4ccc(S(N)(=O)=O)s4)c3)n2)ccc1C(F)(F)F [Example 453, 5-{4-[4-(3-Ethoxy-4-trifluoromethyl-phenyl)-6-trifluoromethyl-pyrimidin-2-yl]-pyridin-2-yl}-thiophene-2-sulfonic acid amide] | 237.5 °C
O=S(=O)(NCc1ccccc1)c1cccc(-c2cc(-c3nc(-c4ccc(C(F)(F)F)cc4)cc(C(F)(F)F)n3)ccn2)c1 [Example 405, N-Benzyl-3-{4-[4-trifluoromethyl-6-(4-trifluoromethyl-phenyl)-pyrimidin-2-yl]-pyridin-2-yl}-benzenesulfonamide] | 202.5 °C
CC(C)(C)NS(=O)(=O)c1ccc(-c2cn(-c3cc(-c4ccc(C(F)(F)F)cc4)cc(C(F)(F)F)n3)cn2)s1 [Example 301, 5-{1-[6-Trifluoromethyl-4-(4-trifluoromethyl-phenyl)-pyridin-2-yl]-1H-imidazol-4-yl}-thiophene-2-sulfonic acid tert-butylamide] | > 250 °C
CCCN(C)S(=O)(=O)c1cccc(-c2cc(-c3nc(-c4ccc(C(F)(F)F)cc4)cc(C(F)(F)F)n3)ccn2)c1 [Example 404, N-Methyl-N-propyl-3-{4-[4-trifluoromethyl-6-(4-trifluoromethyl-phenyl)-pyrimidin-2-yl]-pyridin-2-yl}-benzenesulfonamide] | 144 °C
